What was measured:
[3H]Dopamine reuptake = in vitro [3H]dopamine reuptake inhibition in rat brain tissue; format: biochemical; conditions: means of ≧3 separate determinations
[1] = target: [3H]Noradenaline reuptake; assay: in vitro [3H]noradrenaline reuptake inhibition in rat brain tissue; format: biochemical; conditions: means of ≧3 separate determinations

Row | SMILES | Ki ([3H]Dopamine reuptake) [nM] | Ki [1] [nM]
1 | CC(NC(C)(C)C)C(=O)c1cccc(Cl)c1 (stereo not shown) [Bupropion] | 409 | 2590
2 | COc1ccc(C(CN(C)C)C2(O)CCCCC2)cc1 (stereo not shown) [Venlafaxine] | 2590 | 196

From patent US6403650B1, “Treatment of pulmonary hypertension” (Knoll Pharmaceutical Company, priority 1999, dated 2002)
